This note sets out measurements from PubChem BioAssay (NCI).

The structures appear in SMILES notation.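 Cells were grown in 96-well plates and exposed to each compound for 48 hours at five concentrations; endpoints were interpolated linearly between bracketing concentrations, or set to the highest concentration if not reached. GI50 marks 50% less growth. TGI is the concentration that stops growth completely.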 Where a SMILES comes first, the peptide text is derived from it. [ ]: non-standard residue; d: D form. The star is where a group is joined. Lauroyl = CCCCCCCCCCCC(=O)*; Aib = CC(C)(N)C(=O)O; βAla = NCCC(=O)O

This assay relates to MDA-MB-468 breast. Nature of the assay: inhibition of tumour cell growth, NCI panel, 48 h.
As to `COc1cccc(CC(C)=C(c2ccc(OCCN(C)C)cc2)c2ccc(OCCN(C)C)cc2)c1`, the GI50 was 1.16 µM and the TGI was determined as 5.26 µM.
Consider `COc1ccccc1/C=N\N/C(N)=N\N=C\c1ccccc1OC`, for which the GI50 is 0.613 µM and the TGI was greater than 45.7 µM.
`C=C(C=O)[C@@H]1CC[C@]2(CO)CC[C@]3(C)[C@H](CC[C@@H]4[C@@]5(C)CCCNC(C)(C)[C@@H]5CC[C@]43C)[C@@H]12`: the GI50 was 3.77 µM and the TGI is 16.5 µM.
Turning to `Cc1cc(C)c2c(n1)sc1c(Nc3ccc(Cl)cc3)ncnc12`, the GI50 was 0.0218 µM and the TGI stood at 27 µM.
The like results for `O=C(O)COc1ccc2c(=O)c3sc4c(=O)c5ccccc5c(=O)c4c3c(=O)c2c1` were, in that order, 14.9 µM and 35.4 µM.
For the molecule `COC(=O)C[C@](O)(CCCC(C)(C)O)C(=O)O[C@@H]1C(OC)=C[C@]23CCCN2CCc2cc4c(cc2[C@H]13)OCO4`, the GI50 was 0.0102 µM and the TGI was 0.0367 µM.
Turning to `C#CCOc1cccc(-c2ncc3cc(NC(=O)CCl)ccc3n2)c1`, the GI50 is 1.74 µM and the TGI turned out to be 3.55 µM.
As for `Oc1ccc(Nc2ncnc3c2sc2ncccc23)cc1`, the GI50 is 0.0751 µM and the TGI was found to be 21 µM.
`Cc1ccc(SC2c3ccc(C)cc3Oc3nc(N)c(C#N)c(N)c32)cc1` (stereo not drawn): the GI50 is 1.77 µM and the TGI is 3.74 µM.
The like results for `CCN(CC)CCC(CNc1ccnc2cc(Cl)ccc12)c1ccc(Cl)cc1` (stereo not drawn) were, in that order, 0.413 µM and 1.52 µM.
On the same counts, the results for `CC1(C)N=C(N)N=C(N)N1c1ccc(CCCCc2ccc(Cl)cc2S(=O)(=O)F)c(Cl)c1` are 0.569 µM and 5.87 µM.
The like results for `Cc1cc(Cl)cc(OCCn2cc(F)cn2)c1-c1nc(N)nc2c1CN(C(=O)NCC(C)(F)F)C2` were, in that order, 0.0361 µM and 3.13 µM.
`CCCn1cnc2c(c1=N)C(c1ccc(Cl)cc1)c1sc3c(CC)cccc3c1O2` (stereo not drawn): the GI50 was 0.508 µM and the TGI is 4.14 µM.
The like results for `COc1ccc(Sc2[nH]c(C(C)=O)c3ccccc23)cc1` were, in that order, 3.89 µM and 41.4 µM.
The like results for `COc1cc(Nc2ncccc2C(=O)NCc2cn(Cc3cccc(Oc4ccccc4)c3)nn2)cc(OC)c1` were, in that order, 2.42 µM and 7.01 µM.
For `CCN1CCN(C(=O)[C@@]2(C)CC[C@]3(C)CC[C@]4(C)C(=CC(=O)[C@@H]5[C@@]6(C)CC[C@H](OC7C[C@@H](O)[C@@H](O)C(C)O7)C(C)(C)[C@@H]6CC[C@]54C)[C@@H]3C2)CC1` (stereo partly drawn), the GI50 is 1.49 µM and the TGI was found to be 6.17 µM.
Regarding `COC(=O)c1ccc2c(c1)nc(NC(=O)c1ccccc1)n2CCCc1ccccc1`, the GI50 is 3.05 µM and the TGI was greater than 80 µM.
On the same counts, the results for `N#Cc1c(NC(=O)NCc2ccccc2)sc2c1CCCCC2` are 0.317 µM and 3.52 µM.
On the same counts, the results for `COc1cccc(F)c1C(=O)c1cnc(NC2CCN(S(C)(=O)=O)CC2)nc1N` are 3.75 µM and 9.91 µM.
The like results for `COc1cc(OCc2cccc(-c3ccc(C(O)c4nccs4)cc3)c2C)cc(OC)c1C=O` (stereo not drawn) were, in that order, 0.267 µM and 2.51 µM.
On to `c1ccc(-c2nnc(-c3ccccn3)s2)nc1`, for which the GI50 is 9.76 µM and the TGI is greater than 100 µM.
The like results for `Nc1nn2cc(F)cnc2c1C(=O)Nc1cncc(F)c1N1CCC(C(=O)N2CCN(C3COC3)CC2)CC1` were, in that order, 0.165 µM and 0.682 µM.
The like results for `NC(=O)/C=C/C(=O)c1c(Cl)cccc1Cl` were, in that order, 0.292 µM and 0.971 µM.
The like results for `CN1CCN(C2CCN(C(=O)Nc3cc(Oc4ccc(NC(=O)C5(C(=O)Nc6ccc(F)cc6)CC5)c(F)c4)ccn3)CC2)CC1` were, in that order, 1.03 µM and greater than 2.41 µM.
Consider `COc1ccc(/C=C\[N+](=O)[O-])cc1OC`, for which the GI50 was 3.05 µM and the TGI was 11.3 µM.
On the same counts, the results for `Cn1cc(C2=C(c3ccc(N)cc3)C(=O)NC2=O)c2ccccc21` are 7.84 µM and greater than 25 µM.
As for `COc1ccc(OC)c2c1[nH]c(=O)c1c3ccccc3cn21`, the GI50 was 1.08 µM and the TGI came to 2.55 µM.
Turning to `Nc1ccc([N+](=O)[O-])cc1N=C/C=C/c1ccccc1`, the GI50 is 4.68 µM and the TGI stood at 43 µM.
On the same counts, the results for `CC(=O)Nc1ccc(S(=O)(=O)N2C(=O)CCC2C(=O)Nc2ccc(Br)cc2)cc1` (stereo not drawn) are 1.02 µM and 5.55 µM.
The like results for `CCOC(=O)C1=CN(C)C=C(C(=O)OCC)C1c1cc(Br)c(OCC)c(OC)c1` were, in that order, greater than 100 µM and greater than 100 µM.
Take `O=C(Nc1ccc(Br)cc1F)c1cc(F)ccc1O`: the GI50 is 1.13 µM and the TGI was 4.92 µM.
As for `Cn1c(I)c(C#CCO[Si](C)(C)C(C)(C)C)c(=O)[nH]c1=O`, the GI50 is 1.88 µM and the TGI came out at 4.33 µM.
On the same counts, the results for `CC1(C)[C@@H](O)CC[C@]2(C)[C@H]3CC[C@@H]4[C@H]5[C@H](C(=O)/C=C\c6ccccn6)CC[C@]5(O)CC[C@@]4(C)[C@]3(C)CC[C@@H]12` are 1.4 µM and 3.96 µM.
With `CC/C=C\C[C@H](O)C/C=C1/C(=O)C(Cl)=C[C@@H]1C/C=C\CCCC(=O)OC`, the GI50 was 0.554 µM and the TGI was 3.06 µM.
For the molecule `CCCCCCCCCCCC(=O)NC(C)(C)C(=O)N1CCCC1C(=O)NC(C)(C)C(=O)NC(C)(C)C(=O)N1CCCC1C(=O)NC(C)(C)C(=O)NC(C)(C)C(=O)N1CCCC1C(=O)NC(C)C(=O)NCCC(=O)NC(C)C(=O)NC(C)(C)C(=O)NC(C)(C)C(=O)NC(C)(C)C(=O)NCCC(=O)NC(C)(C)C(=O)NC(C)(C)C(=O)NC(C)(C)C(=O)NC(C)C(=O)NCCC(=O)O` (stereo not drawn) (Lauroyl-[Aib]P[Aib][Aib]P[Aib][Aib]PA[βAla]A[Aib][Aib][Aib][βAla][Aib][Aib][Aib]A[βAla]-OH; configuration not given here), the GI50 was 0.328 µM and the TGI is 0.739 µM.
On the same counts, the results for `C[N+](C)(C)CC1CCCc2ccccc2C1=O` (stereo not drawn) are 1.91 µM and 3.76 µM.
The like results for `CNCc1ccccc1-c1csc([C@@H](C)Nc2nc(C)nc3cc(OC)c(OC)cc23)c1` were, in that order, 1.1 µM and 2.59 µM.
On the same counts, the results for `O=C(Nc1ccc(Nc2ccncc2)cc1)c1ccc([N+](=O)[O-])cc1` are 1.75 µM and 5.2 µM.
In the case of `NC(=S)N/N=C/C(=O)O`, the GI50 was 23.9 µM and the TGI is greater than 100 µM.
